pIC50: −log10 of the molar value.
Biological target: T1, human TLR8 (Homo sapiens, UniProt Q9NR97)
T1 sequence (Q9NR97 27-1041): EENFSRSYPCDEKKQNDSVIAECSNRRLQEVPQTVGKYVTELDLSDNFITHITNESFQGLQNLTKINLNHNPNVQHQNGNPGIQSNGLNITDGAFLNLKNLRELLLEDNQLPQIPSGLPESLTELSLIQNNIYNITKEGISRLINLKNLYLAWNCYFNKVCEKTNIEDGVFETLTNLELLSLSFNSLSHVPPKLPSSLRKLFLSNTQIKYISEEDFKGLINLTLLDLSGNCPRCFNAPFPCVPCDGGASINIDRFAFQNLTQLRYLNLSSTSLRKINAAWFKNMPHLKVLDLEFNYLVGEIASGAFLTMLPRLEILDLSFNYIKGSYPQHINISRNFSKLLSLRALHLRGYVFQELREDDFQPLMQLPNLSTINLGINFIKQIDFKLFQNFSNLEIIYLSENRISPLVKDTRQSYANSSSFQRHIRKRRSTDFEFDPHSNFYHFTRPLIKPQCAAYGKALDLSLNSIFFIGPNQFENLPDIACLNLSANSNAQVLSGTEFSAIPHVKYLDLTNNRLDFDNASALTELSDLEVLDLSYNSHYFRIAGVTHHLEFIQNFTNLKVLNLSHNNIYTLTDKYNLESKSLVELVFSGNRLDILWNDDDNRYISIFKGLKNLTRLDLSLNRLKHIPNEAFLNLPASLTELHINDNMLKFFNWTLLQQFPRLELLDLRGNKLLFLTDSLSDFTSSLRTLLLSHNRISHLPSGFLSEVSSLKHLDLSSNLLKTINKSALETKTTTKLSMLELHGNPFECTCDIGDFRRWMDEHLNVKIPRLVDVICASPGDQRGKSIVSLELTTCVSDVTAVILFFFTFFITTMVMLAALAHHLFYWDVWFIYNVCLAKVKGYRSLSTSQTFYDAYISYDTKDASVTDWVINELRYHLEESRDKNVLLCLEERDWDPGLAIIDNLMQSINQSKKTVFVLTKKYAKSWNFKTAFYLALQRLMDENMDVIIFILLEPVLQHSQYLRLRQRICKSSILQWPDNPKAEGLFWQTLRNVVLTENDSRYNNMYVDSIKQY
Assay: HEK293-Blue-hTLR-8 cells assay (SEAP reporter, R848 stimulation)
Format: cell-based
Details: HEK293-Blue-hTLR8 cells, R848, 20 hrs incubation; read-out: HEK/hTLR8 IC50
Description: The following tests were carried out in order to determine the activity of the compounds of formula (I), (Ia) or (Ib) in HEK293-Blue-hTLR-7/8/9 cells assay.
HEK293-Blue-hTLR-8 Cells Assay:
A stable HEK293-Blue-hTLR-8 cell line was purchased from InvivoGen (Cat.#: hkb-htlr8, San Diego, Calif., USA). These cells were originally designed for studying the stimulation of human TLR8 by monitoring the activation of NF-κB. A SEAP (secreted embryonic alkaline phosphatase) reporter gene was placed under the control of the IFN-β minimal promoter fused to five NF-κB and AP-1-binding sites. The SEAP was induced by activating NF-κB and AP-1 via stimulating HEK-Blue hTLR8 cells with TLR8 ligands. Therefore the reporter expression was declined by TLR8 antagonist under the stimulation of a ligand, such as R848, for incubation of 20 hrs. The cell culture supernatant SEAP reporter activity was determined using QUANTI-Blue™ kit (Cat.#: rep-qb1, Invivogen, San Diego, Ca, USA) at a wavelength of 640 nm, a detection medium that turns purple or blue in the presence of alkaline phosphatase.
HEK293-Blue-hTLR8 cells were incubated at a density of 250,000-450,000 cells/mL in a volume of 170 μL in a 96-well plate in Dulbecco's Modified Eagle's medium (DMEM) containing 4.5 g/L glucose, 50 U/mL penicillin, […], […], 2 mM L-glutamine, 10% (v/v) heat-inactivated fetal bovine serum with addition of 20 μL test compound in a serial dilution in the presence of final DMSO at 1% and 10 μL of 60 uM R848 in above DMEM, perform incubation under 37° C. in a CO2 incubator for 20 hrs. Then 20 μL of the supernatant from each well was incubated with 180 μL Quanti-blue substrate solution at 37° C. for 2 hrs and the absorbance was read at 620˜655 nm using a spectrophotometer. The signaling pathway that TLR8 activation leads to downstream NF-κB activation has been widely accepted, and therefore similar reporter assay was modified for evaluating TLR8 antagonist.

SMILES	pIC50
C[C@@H]1CN(c2ccc(C#N)c3ncccc23)C[C@@H]2Cc3cc(N4CC5CCNCC5C4=O)ccc3CN21 (stereo partly drawn) [Example 18, 5-[(4R,11aS)-4-methyl-9-(3-oxo-3a,4,5,6,7,7a-hexahydro-1H-pyrrolo[3,4-c]pyridin-2-yl)-1,3,4,6,11,11a-hexahydropyrazino[1,2-b]isoquinolin-2-yl]quinoline-8-carbonitrile]	7.84
C[C@@H]1CN(c2ccc(C#N)c3ncccc23)C[C@@H]2Cc3cc(N4C[C@@H](F)[C@@H](N)C4)ccc3CN21 [Example 8, 5-[(4R,11aS)-9-[(3S,4R)-3-amino-4-fluoro-pyrrolidin-1-yl]-4-methyl-1,3,4,6,11,11a-hexahydropyrazino[1,2-b]isoquinolin-2-yl]quinoline-8-carbonitrile]	7.67
C[C@@H]1CN(c2ccc(C#N)c3ncccc23)C[C@@H]2Cc3cc(OCCN(C)C)ccc3CN21 [Example 11, 5-[(4R,11aS)-9-[2-(dimethylamino)ethoxy]-4-methyl-1,3,4,6,11,11a-hexahydropyrazino[1,2-b]isoquinolin-2-yl]quinoline-8-carbonitrile]	7.95
C[C@@H]1CN(c2ccc(C#N)c3ncccc23)C[C@@H]2Cc3ccc(OCCN(C)C)cc3CN21 [Example 5, 5-[(4R,11aS)-8-[2-(dimethylamino)ethoxy]-4-methyl-1,3,4,6,11,11a-hexahydropyrazino[1,2-b]isoquinolin-2-yl]quinoline-8-carbonitrile]	8.04
C[C@@H]1CN(c2ccc(C#N)c3ncccc23)C[C@@H]2Cc3cc(N4CCN(C(=O)C(C)(C)N)CC4)ccc3CN21 [Example 13, 5-[(4R,11aS)-9-[4-(2-amino-2-methyl-propanoyl)piperazin-1-yl]-4-methyl-1,3,4,6,11,11a-hexahydropyrazino[1,2-b]isoquinolin-2-yl]quinoline-8-carbonitrile]	7.43
C[C@@H]1CN(c2ccc(C#N)c3ncccc23)C[C@@H]2Cc3cc(OC[C@@H]4CCN4)ccc3CN21 [Example 12, 5-[(4R,11aS)-9-[[(2S)-azetidin-2-yl]methoxy]-4-methyl-1,3,4,6,11,11a-hexahydropyrazino[1,2-b]isoquinolin-2-yl]quinoline-8-carbonitrile]	7.64
CO[C@H]1CNC[C@H]1Nc1ccc2c(c1)C[C@H]1CN(c3ccc(C#N)c4ncccc34)C[C@@H](C)N1C2 [Example 7, 5-[(4R,11aS)-9-[[(3R,4S)-4-methoxypyrrolidin-3-yl]amino]-4-methyl-1,3,4,6,11,11a-hexahydropyrazino[1,2-b]isoquinolin-2-yl]quinoline-8-carbonitrile]	7.87
C[C@@H]1CN(c2ccc(C#N)c3ncccc23)C[C@@H]2Cc3ccc(N4CCOCC(N)C4)cc3CN21 (stereo partly drawn) [Example 1, 5-[(4R,11aS)-8-(6-amino-1,4-oxazepan-4-yl)-4-methyl-1,3,4,6,11,11a-hexahydropyrazino[1,2-b]isoquinolin-2-yl]quinoline-8-carbonitrile]	7.84
C[C@@H]1CN(c2ccc(C#N)c3ncccc23)C[C@@H]2Cc3cc(N[C@@H]4CNC[C@@H]4F)ccc3CN21 [Example 6, 5-[(4R,11aS)-4-methyl-9-[[(3R,4S)-4-fluoropyrrolidin-3-yl]amino]-1,3,4,6,11,11a-hexahydropyrazino[1,2-b]isoquinolin-2-yl]quinoline-8-carbonitrile]	7.58

The next compounds have a higher pIC50 than those just listed; values first:

pIC50	SMILES
8.85	C[C@@H]1CN(c2ccc(C#N)c3ncccc23)C[C@@H]2Cc3cc(N4CCN(C(=O)[C@]5(C)CCCN5)CC4)ccc3CN21 [Example 14, 5-[(4R,11aS)-4-methyl-9-[4-[(2S)-2-methylpyrrolidine-2-carbonyl]piperazin-1-yl]-1,3,4,6,11,11a-hexahydropyrazino[1,2-b]isoquinolin-2-yl]quinoline-8-carbonitrile]
8.62	C[C@@H]1CN(c2ccc(C#N)c3ncccc23)C[C@@H]2Cc3cc(N4C[C@H]5CNCCN5C4=O)ccc3CN21 (single isomer, unassigned) [Example 17B]
8.28	C[C@@H]1CN(c2ccc(C#N)c3ncccc23)C[C@@H]2Cc3cc(N4CC(N)CC4=O)ccc3CN21 (stereo partly drawn) [Example 16, 5-[(4R,11aS)-9-(4-amino-2-oxo-pyrrolidin-1-yl)-4-methyl-1,3,4,6,11,11a-hexahydropyrazino[1,2-b]isoquinolin-2-yl]quinoline-8-carbonitrile]
8.64	CO[C@H]1CN(c2ccc3c(c2)C[C@H]2CN(c4ccc(C#N)c5ncccc45)C[C@@H](C)N2C3)C[C@H]1N [Example 9, 5-[(4R,11aS)-9-[(3R,4S)-3-amino-4-methoxy-pyrrolidin-1-yl]-4-methyl-1,3,4,6,11,11a-hexahydropyrazino[1,2-b]isoquinolin-2-yl]quinoline-8-carbonitrile]
8.33	C[C@@H]1CN(c2ccc(C#N)c3ncccc23)C[C@@H]2Cc3cc(N4C[C@@H]5C[C@H]4CN5C(=O)C(C)(C)N)ccc3CN21 [Example 15, 5-[(4R,11aS)-9-[(1S,4S)-5-(2-amino-2-methyl-propanoyl)-2,5-diazabicyclo[2.2.1]heptan-2-yl]-4-methyl-1,3,4,6,11,11a-hexahydropyrazino[1,2-b]isoquinolin-2-yl]quinoline-8-carbonitrile]
8.38	C[C@@H]1CN(c2ccc(C#N)c3ncccc23)C[C@@H]2Cc3cc(N4CC5CNCCC5C4=O)ccc3CN21 (stereo partly drawn) [Example 19, 5-[(4R,11aS)-4-methyl-9-(1-oxo-3a,4,5,6,7,7a-hexahydro-3H-pyrrolo[3,4-c]pyridin-2-yl)-1,3,4,6,11,11a-hexahydropyrazino[1,2-b]isoquinolin-2-yl]quinoline-8-carbonitrile]
8.38	C[C@@H]1CN(c2ccc(C#N)c3ncccc23)C[C@@H]2Cc3ccc(NCCN4CC[C@H](O)C4)cc3CN21 [Example 2, 5-[(4R,11aS)-8-[2-[(3S)-3-hydroxypyrrolidin-1-yl]ethylamino]-4-methyl-1,3,4,6,11,11a-hexahydropyrazino[1,2-b]isoquinolin-2-yl]quinoline-8-carbonitrile]
8.10	C[C@@H]1CN(c2ccc(C#N)c3ncccc23)C[C@@H]2Cc3cc(N4C[C@@H]5CNCCN5C4=O)ccc3CN21 (single isomer, unassigned) [Example 17A]
8.82	C[C@@H]1CN(c2ccc(C#N)c3ncccc23)C[C@@H]2Cc3cc(N4CC5NCCOC5C4)ccc3CN21 (stereo in doubt) [Example 10, 5-[(4R,11aS)-9-[(4aS,7aS)-3,4,4a,5,7,7a-hexahydro-2H-pyrrolo[3,4-b][1,4]oxazin-6-yl]-4-methyl-1,3,4,6,11,11a-hexahydropyrazino[1,2-b]isoquinolin-2-yl]quinoline-8-carbonitrile]

Reference: patent US20230002375A1, “HYDROPYRAZINO[1,2-B]ISOQUINOLINE COMPOUNDS FOR THE TREATMENT OF AUTOIMMUNE DISEASE” (Hoffmann-La Roche Inc., priority 2019, published 2023)
